{"source": "PubChem BioAssay AID1259409", "about": "(Chemical Carcinogenesis Research Information System (CCRIS), 2018)", "origin": "cited, not measured here", "test_system": "rodent chemically induced tumor inhibition, incidence and multiplicity", "assay": "CCRIS tumor inhibitor studies", "note": "“And” between values parts separate entries of the source, which are not always exact repeats. Equal values may be shown once.", "data": [{"smiles": "COc1cc(CC(C)C(C)Cc2ccc(O)c(OC)c2)ccc1O", "note": "(stereo unspecified)", "values": [{"measurement": "tumour outcome (control, treated, inhibition, significance)", "setting": "Carcinogen: 2,2'-DIHYDROXY-DI-N-PROPYLNITROSAMINE, 53609-64-6, N-ETHYL-N-HYDROXYETHYLNITROSAMINE, 13147-25-6, 3,2'-DIMETHYL-1,4-, Carcinogen: 2,2'-DIHYDROXY-DI-N-PROPYLNITROSAMINE, 53609-64-6, N-ETHYL-N-HYDROXYETHYLNITROSAMINE, 13147-25-6, 3,2'-DIMETHYL-1,4-, Dose [Inhibitor]: 0, 1% IN DIET FOR 4 WK BEGINNING 1 D PRIOR TO FIRST CARCINOGEN DOSE (STUDY DURATION: 36 WK), Route [Inhibitor]: ORAL, Species: RAT, Strain/Sex: F344/MALE, Target Tissue: Type of Lesion: KIDNEY: ADENOMA, Dose [Carcinogen]: 1000 MG/KG BW DHPN TWICE, 1500 MG/KG EHEN TWICE, 75 MG/KG BW DMAB 3 TIMES, SEQUENTIALLY OVER 3 WK, Promoter: NONE USED", "value": "6/10 (60%), 5/12 (42%), 30%, not significant"}, {"measurement": "tumour outcome (control, treated, inhibition, significance)", "setting": "Carcinogen: 2,2'-DIHYDROXY-DI-N-PROPYLNITROSAMINE, 53609-64-6, N-ETHYL-N-HYDROXYETHYLNITROSAMINE, 13147-25-6, 3,2'-DIMETHYL-1,4-, Carcinogen: 2,2'-DIHYDROXY-DI-N-PROPYLNITROSAMINE, 53609-64-6, N-ETHYL-N-HYDROXYETHYLNITROSAMINE, 13147-25-6, 3,2'-DIMETHYL-1,4-, Dose [Inhibitor]: 0, 1% IN DIET FOR 4 WK BEGINNING 1 D PRIOR TO FIRST CARCINOGEN DOSE (STUDY DURATION: 36 WK), Route [Inhibitor]: ORAL, Species: RAT, Strain/Sex: F344/MALE, Target Tissue: Type of Lesion: LUNG: ADENOMA, Dose [Carcinogen]: 1000 MG/KG BW DHPN TWICE, 1500 MG/KG EHEN TWICE, 75 MG/KG BW DMAB 3 TIMES, SEQUENTIALLY OVER 3 WK, Promoter: NONE USED", "value": "5/10 (50%), 6/12 (50%), 0%, not significant"}]}, {"smiles": "O=c1cc(-c2ccc(O)c(O)c2)oc2cc(O)cc(O)c12", "values": [{"measurement": "tumour outcome (control, treated, inhibition, significance)", "setting": "Carcinogen: 7,12-DIMETHYLBENZ[A]ANTHRACENE, 57-97-6, Dose [Inhibitor]: 0, 0.2 ML OF A 1% SOLUTION 1/D FOR 2 WK APPLIED 5 MIN POST EACH CARCINOGEN DOSE THEN 1/D FOR 4 WK DURING PROMOTION STAGE, Route [Inhibitor]: DERMAL, Species: MOUSE, Strain/Sex: SWISS/MALE, Target Tissue: Type of Lesion: SKIN: PAPILLOMA, Dose [Carcinogen]: 0.2 ML OF A 0.24% SOLUTION IN DMSO 1/D FOR 2 WK, Promoter: CROTON OIL, 8001-28-3", "value": "23/23 (100%), 10/24 (42%), 58%, not calculated"}, {"measurement": "tumour outcome (control, treated, inhibition, significance)", "setting": "Carcinogen: 7,12-DIMETHYLBENZ[A]ANTHRACENE, 57-97-6, Dose [Inhibitor]: 0, 0.2 ML OF A 1% SOLUTION 1/D FOR 2 WK APPLIED 5 MIN PRIOR TO EACH CARCINOGEN DOSE (STUDY DURATION: 20 WK), Route [Inhibitor]: DERMAL, Species: MOUSE, Strain/Sex: SWISS/MALE, Target Tissue: Type of Lesion: SKIN: PAPILLOMA, Dose [Carcinogen]: 0.2 ML OF A 0.24% SOLUTION IN DMSO 1/D FOR 2 WK, Promoter: CROTON OIL, 8001-28-3", "value": "23/23 (100%), 20/23 (87%), 13%, not calculated"}]}, {"smiles": "O=C(O)/C=C/C(=O)O", "values": [{"measurement": "tumour outcome (control, treated, inhibition, significance)", "setting": "Carcinogen: 3'-METHYL-4-DIMETHYLAMINOAZOBENZENE, 55-80-1, Dose [Inhibitor]: 1% IN DIET AND 0.025% IN DRINKING WATER CONCOMITANTLY FOR 51 WK STARTING AT COMPLETION OF CARCINOGEN TREATMENT (STUDY DU, Route [Inhibitor]: ORAL, Species: RAT, Strain/Sex: DONRYU/MALE, Target Tissue: Type of Lesion: LIVER: CARCINOMA, Dose [Carcinogen]: 0.06% IN DIET FOR 50 D, Promoter: NONE USED", "value": "11/13 (85%), 2/15 (13%), 85%, p<0.0002"}, {"measurement": "tumour outcome (control, treated, inhibition, significance)", "setting": "Carcinogen: 4-(METHYLNITROSAMINO)-1-(3-PYRIDYL)-1-BUTANONE [64091-50-5], Dose [Inhibitor]: 80 MMOL/KG IN DIET FOR 17 WK BEGINNING 1 WK PRIOR TO FIRST CARCINOGEN DOSE (STUDY DURATION: 17 WK), Route [Inhibitor]: ORAL, Species: MOUSE, Strain/Sex: A/J/FEMALE, Target Tissue: Type of Lesion: LUNG: ADENOMA, Dose [Carcinogen]: 10 UMOL ONCE 1 WK POST FIRST INHIBITOR DOSE (STUDY DURATION: 17 WK), Promoter: NONE", "value": "100%, 100%, 0%, not significant"}, {"measurement": "tumour outcome (control, treated, inhibition, significance)", "setting": "Carcinogen: 4-(METHYLNITROSAMINO)-1-(3-PYRIDYL)-1-BUTANONE [64091-50-5], Dose [Inhibitor]: 80 MMOL/KG IN DIET FOR 53 WK BEGINNING 1 WK PRIOR TO FIRST CARCINOGEN DOSE (STUDY DURATION: 53 WK), Route [Inhibitor]: ORAL, Species: MOUSE, Strain/Sex: A/J/FEMALE, Target Tissue: Type of Lesion: LUNG: ADENOMA OR ADENOCARCINOMA, Dose [Carcinogen]: 10 UMOL ONCE 1 WK POST FIRST INHIBITOR DOSE (STUDY DURATION: 53 WK), Promoter: NONE", "value": "100%, 97%, 3%, not significant"}, {"measurement": "tumour outcome (control, treated, inhibition, significance)", "setting": "Carcinogen: 4-(METHYLNITROSAMINO)-1-(3-PYRIDYL)-1-BUTANONE [64091-50-5], Dose [Inhibitor]: 160 MMOL/KG IN DIET FOR 17 WK BEGINNING 1 WK PRIOR TO FIRST CARCINOGEN DOSE (STUDY DURATION: 17 WK), Route [Inhibitor]: ORAL, Species: MOUSE, Strain/Sex: A/J/FEMALE, Target Tissue: Type of Lesion: LUNG: ADENOMA, Dose [Carcinogen]: 10 UMOL ONCE 1 WK POST FIRST INHIBITOR DOSE (STUDY DURATION: 17 WK), Promoter: NONE", "value": "100%, 100%, 0%, not significant"}, {"measurement": "tumour outcome (control, treated, inhibition, significance)", "setting": "Carcinogen: 4-(METHYLNITROSAMINO)-1-(3-PYRIDYL)-1-BUTANONE [64091-50-5], Dose [Inhibitor]: 160 MMOL/KG IN DIET FOR 53 WK BEGINNING 1 WK PRIOR TO FIRST CARCINOGEN DOSE (STUDY DURATION: 53 WK), Route [Inhibitor]: ORAL, Species: MOUSE, Strain/Sex: A/J/FEMALE, Target Tissue: Type of Lesion: LUNG: ADENOMA OR ADENOCARCINOMA, Dose [Carcinogen]: 10 UMOL ONCE 1 WK POST FIRST INHIBITOR DOSE (STUDY DURATION: 53 WK), Promoter: NONE", "value": "100%, 97%, 3%, not significant"}, {"measurement": "tumour outcome (control, treated, inhibition, significance)", "setting": "Carcinogen: POTASSIUM 1-METHYL-7-[2-(5-NITRO-2-FURYL)VINYL]-4-OXO-1,4-DIHYDRO-1,8- NAPHTHYRIDINE-3-CARBOXYLATE, 29676-95-7, Dose [Inhibitor]: 1% IN DIET FOR 39 WK STARTING AT COMPLETION OF CARCINOGEN TREATMENT (STUDY DURATION: 53 WK), Route [Inhibitor]: ORAL, Species: MOUSE, Strain/Sex: ICR/MALE, Target Tissue: Type of Lesion: FORESTOMACH: SQUAMOUS CELL CARCINOMA, Dose [Carcinogen]: 0.012% DIET FOR 14 WK, Promoter: NONE USED", "value": "7/30 (23%), 1/32 (3%), 87%, p<0.05"}, {"measurement": "tumour outcome (control, treated, inhibition, significance)", "setting": "Carcinogen: POTASSIUM 1-METHYL-7-[2-(5-NITRO-2-FURYL)VINYL]-4-OXO-1,4-DIHYDRO-1,8- NAPHTHYRIDINE-3-CARBOXYLATE, 29676-95-7, Dose [Inhibitor]: 1% IN DIET FOR 39 WK STARTING AT COMPLETION OF CARCINOGEN TREATMENT (STUDY DURATION: 53 WK), Route [Inhibitor]: ORAL, Species: MOUSE, Strain/Sex: ICR/MALE, Target Tissue: Type of Lesion: FORESTOMACH: SQUAMOUS CELL PAPILLOMA, Dose [Carcinogen]: 0.012% IN DIET FOR 14 WK, Promoter: NONE USED", "value": "13/30 (43%), 0/32 (0%), 100%, not significant"}, {"measurement": "tumour outcome (control, treated, inhibition, significance)", "setting": "Carcinogen: POTASSIUM 1-METHYL-7-[2-(5-NITRO-2-FURYL)VINYL]-4-OXO-1,4-DIHYDRO-1,8- NAPHTHYRIDINE-3-CARBOXYLATE, 29676-95-7, Dose [Inhibitor]: 1% IN DIET FOR 39 WK STARTING AT COMPLETION OF CARCINOGEN TREATMENT (STUDY DURATION: 53 WK), Route [Inhibitor]: ORAL, Species: MOUSE, Strain/Sex: ICR/MALE, Target Tissue: Type of Lesion: LUNG: ADENOCARCINOMA, Dose [Carcinogen]: 0.012% IN DIET FOR 14 WK, Promoter: NONE USED", "value": "2/30 (7%), 11/32 (34%), -386%, not significant"}, {"measurement": "tumour outcome (control, treated, inhibition, significance)", "setting": "Carcinogen: POTASSIUM 1-METHYL-7-[2-(5-NITRO-2-FURYL)VINYL]-4-OXO-1,4-DIHYDRO-1,8- NAPHTHYRIDINE-3-CARBOXYLATE, 29676-95-7, Dose [Inhibitor]: 1% IN DIET FOR 39 WK STARTING AT COMPLETION OF CARCINOGEN TREATMENT (STUDY DURATION: 53 WK), Route [Inhibitor]: ORAL, Species: MOUSE, Strain/Sex: ICR/MALE, Target Tissue: Type of Lesion: LUNG: PAPILLOTUBULAR ADENOCARCINOMA, Dose [Carcinogen]: 0.012% IN DIET FOR 14 WK, Promoter: NONE USED", "value": "27/30 (90%), 0/32 (0%), 100%, p<0.01"}, {"measurement": "tumour outcome (control, treated, inhibition, significance)", "setting": "Carcinogen: THIOACETAMIDE, 62-55-5, Dose [Inhibitor]: 1% IN DIET FOR 48 WK GIVEN POST CARCINOGEN (STUDY DURATION: 88 WK), Route [Inhibitor]: ORAL, Species: MOUSE, Strain/Sex: ICR/MALE, Target Tissue: Type of Lesion: LIVER: HEPATOCELLULAR CARCINOMA, Dose [Carcinogen]: 0.035% IN DIET FOR 40 WK, Promoter: NONE USED", "value": "11/24 (46%), 0/15 (0%), 100%, p<0.01"}]}, {"smiles": "O=C(O)/C=C/c1ccccc1", "values": [{"measurement": "tumour outcome (control, treated, inhibition, significance)", "setting": "Carcinogen: BENZO[A]PYRENE, 50-32-8, Dose [Inhibitor]: 0.06 MMOL/G OF DIET DAILY STARTING 7 D BEFORE AND CONTINUING THROUGH 3 D AFTER CARCINOGEN TREATMENT FOLLOWED BY OBSERVAT, Route [Inhibitor]: ORAL, Species: MOUSE, Strain/Sex: ICR/FEMALE, Target Tissue: Type of Lesion: FORESTOMACH: NEOPLASM, Dose [Carcinogen]: 1 MG IN 0.2 ML CORN OIL 2/WK FOR 4 WK, Promoter: NONE USED", "value": "97%, 100%, -3%, not significant and 100%, 94%, 6%, not significant"}]}, {"smiles": "CSCC[C@H](NC(=O)[C@@H](N)Cc1c[nH]c2ccccc12)C(=O)N[C@@H](CC(=O)O)C(=O)N[C@@H](Cc1ccccc1)C(N)=O", "values": [{"measurement": "tumour outcome (control, treated, inhibition, significance)", "setting": "Carcinogen: N-METHYL-N'-NITRO-N-NITROSOGUANIDINE, 70-25-7, Dose [Inhibitor]: 1 MG/KG BW IN DEPOT FORM 1/2 D BEGINNING 1 WK POST LAST CARCINOGEN DOSE FOR DURATION OF STUDY (STUDY DURATION: 52 WK), Route [Inhibitor]: SUBCUTANEOUS, Species: RAT, Strain/Sex: WISTAR/MALE, Target Tissue: Type of Lesion: STOMACH: ADENOCARCINOMA, Dose [Carcinogen]: 50 UG/ML IN DRINKING WATER FOR 25 WK, Promoter: NONE USED", "value": "12/19 (63%), 6/19 (32%), 49%, p<0.05"}]}]}
